In brackets after ≈: the same amount, converted by molar mass. Square brackets hold non-standard residues; d marks the D form. Peptide text beside a SMILES is read from it. * marks the point of attachment. ξ: configuration not given here. boroAla((+)-pinanediol) = C[C@H](N*)B1O[C@@H]2C[C@@H]3C[C@@H](C3(C)C)[C@]2(C)O1; Biphenylcarbonyl(4'-Bu) = CCCCc1ccc(-c2ccc(C(=O)*)cc2)cc1; X1 = C[C@H](N*)B1OC2C[C@@H]3C[C@@H](C3(C)C)[C@]2(C)O1; Benzoyl(4-(4-Cl-Ph)) = O=C(c1ccc(-c2ccc(Cl)cc2)cc1)*; X16 = CC(C)(C)c1ccc(-c2ccc(C(=O)*)cc2)cc1; Lys(Me3) = C[N+](C)(C)CCCC[C@H](N)C(=O)O; Benzoyl(2,3-diOH) = O=C(c1cccc(O)c1O)*; Pro(4R-NH2) = N[C@H]1CN[C@H](C(=O)O)C1; Thr(3ξ) = CC(O)[C@H](N)C(=O)O; NMeK = CN[C@@H](CCCCN)C(=O)O; X6 = C[C@@H](N*)C(=O)C(N)=O; boroAla = C[C@H](N*)B(O)O; Dab = NCC[C@H](N)C(=O)O; Dap = NC[C@H](N)C(=O)O; βAla = NCCC(=O)O
Assays:
[1] = system: Escherichia coli strain MC4100 IMP-4213, which harbors an LptD mutation; conditions: Method B; E. coli MC4100 IMP-4213 (LptD mutation); 35° C., 22 hours
Outline: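 Two-fold serial dilutions of compound inoculated at final OD600 0.0005, incubated static at 35 °C for 22 h, and growth read visually.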

[2] = system: methicillin resistant Staphylococcus aureus (MRSA) strain USA300 (NRS384); conditions: Method B, 35° C., 22 hours
S. aureus SPase = S. aureus SPase (Staphylococcus aureus, UniProt P0A070); experiment: biochemical
E. coli SPase = E. coli SPase (Escherichia coli, UniProt P00803); experiment: Biochemical SPase activity assay (fluorogenic peptide substrate), E. coli enzyme

SMILES	MIC (μg/mL) E. coli [1] [µg/mL]	MIC (μg/mL) S. aureus [2] [µg/mL]	IC50 (S. aureus SPase) [nM]	IC50 (E. coli SPase) [nM]
CCCCc1ccc(-c2ccc(C(=O)N[C@@H](CCCCN)C(=O)N[C@@H](CCCCN)C(=O)N[C@@H](C)C(=O)N[C@@H](CC(C)C)C(=O)N[C@@H](C)B3OC4C[C@@H]5C[C@@H](C5(C)C)[C@]4(C)O3)cc2)cc1 (some centres unmarked) [Compound 146] ({Biphenylcarbonyl(4'-Bu)}-KKAL-X1)	0.25 (≈ 0.278 µM)	0.4 (≈ 0.444 µM)	160	12
C[C@H](NC(=O)[C@H](CCCCN)NC(=O)[C@H](C)NC(=O)[C@@H](NC(=O)[C@H](CCN)NC(=O)c1ccc(-c2ccc(C(C)(C)C)cc2)cc1)[C@@H](C)O)B1O[C@@H]2C[C@@H]3C[C@@H](C3(C)C)[C@]2(C)O1 [Compound 231] (X16-[Dab]TAK-{boroAla((+)-pinanediol)})	0.5 (≈ 0.581 µM)	0.5 (≈ 0.581 µM)	95	4.5
CCCCc1ccc(-c2ccc(C(=O)N[C@H](CCCCN)C(=O)N[C@H](C(=O)N[C@@H](C)C(=O)N[C@@H](CCCCN)C(=O)N[C@@H](C)B(O)O)C(C)O)cc2)cc1 (some centres unmarked) [Compound 160] ({Biphenylcarbonyl(4'-Bu)}-[dK][Thr(3ξ)]AK-boroAla)	64 (≈ 84.9 µM)	2.8 (≈ 3.71 µM)	900	2100
CCCCc1ccc(-c2ccc(C(=O)N[C@@H](CN)C(=O)N[C@@H](CCCCN)C(=O)N[C@@H](C)C(=O)N[C@@H](CCCCN)C(=O)N[C@@H](C)B3O[C@@H]4C[C@@H]5C[C@@H](C5(C)C)[C@]4(C)O3)cc2)cc1 [Compound 184] ({Biphenylcarbonyl(4'-Bu)}-[Dap]KAK-{boroAla((+)-pinanediol)})	0.13 (≈ 0.149 µM)	0.25 (≈ 0.286 µM)	300	5.9
CCCCc1ccc(Nc2ccc(C(=O)N[C@@H](CCN)C(=O)N[C@H](C(=O)N[C@@H](C)C(=O)N[C@@H](CCCCN)C(=O)N[C@@H](C)B3OC4C[C@@H]5C[C@@H](C5(C)C)[C@]4(C)O3)[C@@H](C)O)cc2)cc1 (some centres unmarked) [Compound 249]	1 (≈ 1.14 µM)	0.35 (≈ 0.4 µM)	160	17
CCCCc1ccc(-c2ccc(C(=O)N[C@@H](CCCCN)C(=O)N3C[C@H](N)C[C@H]3C(=O)N[C@@H](C)C(=O)N[C@@H](CC(C)C)C(=O)N[C@@H](C)B(O)O)cc2)cc1 [Compound 152] ({Biphenylcarbonyl(4'-Bu)}-K[Pro(4R-NH2)]AL-boroAla)	0.5 (≈ 0.667 µM)	0.4 (≈ 0.534 µM)	350	25
CCCCc1ccc(-c2ccc(CN3CCC(C(=O)N[C@H](C(=O)N[C@@H](C)C(=O)N[C@@H](CCCCN)C(=O)N[C@@H](C)B4OC5C[C@@H]6C[C@@H](C6(C)C)[C@]5(C)O4)[C@@H](C)O)CC3)cc2)cc1 (some centres unmarked) [Compound 273]	8 (≈ 9.34 µM)	0.088 (≈ 0.103 µM)	9.8	470
CCCCc1ccc(-c2ccc(C(=O)N[C@@H](CCN)C(=O)N[C@H](C(=O)N[C@@H](C)C(=O)N[C@@H](CCCCN)C(=O)N[C@@H](C)B3OC4C[C@@H]5C[C@@H](C5(C)C)[C@]4(C)O3)C(C)O)cc2)cc1 (some centres unmarked) [Compound 148] ({Biphenylcarbonyl(4'-Bu)}-[Dab][Thr(3ξ)]AK-X1)	0.4 (≈ 0.465 µM)	0.23 (≈ 0.267 µM)	140	7.4
CCCCc1ccc(-c2ccc(C(=O)NCCC(=O)N[C@@H](CCCCN)C(=O)N[C@H](C(=O)N[C@@H](C)C(=O)N[C@@H](CC(C)C)C(=O)N[C@@H](C)B3OC4C[C@@H]5C[C@@H](C5(C)C)[C@]4(C)O3)[C@@H](C)O)cc2)cc1 (some centres unmarked) [Compound 198] ({Biphenylcarbonyl(4'-Bu)-βAla}-KTAL-X1)	5 (≈ 5.3 µM)	0.5 (≈ 0.53 µM)	8.9	42
CCCCc1ccc(-c2ccc(C(=O)N[C@@H](CN)C(=O)N[C@@H](CCCCN)C(=O)N[C@@H](C)C(=O)N[C@@H](CCCCN)C(=O)N[C@@H](C)B(O)O)cc2)cc1 [Compound 186] ({Biphenylcarbonyl(4'-Bu)}-[Dap]KAK-boroAla)	0.13 (≈ 0.176 µM)	0.13 (≈ 0.176 µM)	370	6.9
CCCCc1ccc(-c2cnc(C(=O)N[C@@H](CCN)C(=O)N[C@H](C(=O)N[C@@H](C)C(=O)N[C@@H](CCCCN)C(=O)N[C@@H](C)B3OC4C[C@@H]5C[C@@H](C5(C)C)[C@]4(C)O3)[C@@H](C)O)nc2)cc1 (some centres unmarked) [Compound 242]	11 (≈ 12.8 µM)	1.4 (≈ 1.62 µM)	54	21
CCCCc1ccc(-c2ccc(C(=O)N[C@@H](CCCCN)C(=O)N[C@@H](CCCCN)C(=O)N[C@@H](C)C(=O)N[C@@H](CC(C)C)C(=O)N[C@H](C)C(=O)C(N)=O)cc2)cc1 [Compound 254] ({Biphenylcarbonyl(4'-Bu)}-KKAL-X6)	11 (≈ 13.9 µM)	8 (≈ 10.1 µM)	660	1200
CCCCc1ccc(-c2ccc(C(=O)N[C@@H](CCN)C(=O)N[C@@H](CCN)C(=O)N[C@@H](C)C(=O)N[C@@H](CCCCNC(=O)c3cccc(O)c3O)C(=O)N[C@@H](C)B3OC4C[C@@H]5C[C@@H](C5(C)C)[C@]4(C)O3)cc2)cc1 (some centres unmarked) [Compound 190] ({Biphenylcarbonyl(4'-Bu)}-[Dab][Dab]AK(Benzoyl(2,3-diOH))-X1)	>64	64 (≈ 64.3 µM)	64000	1300
C[C@H](NC(=O)[C@H](CC(N)=O)NC(=O)[C@H](C)NC(=O)[C@@H](NC(=O)[C@H](CCCCN)NC(=O)CCNC(=O)c1ccc(-c2ccc(Cl)cc2)cc1)[C@@H](C)O)B1OC2C[C@@H]3C[C@@H](C3(C)C)[C@]2(C)O1 (some centres unmarked) [Compound 201] ({Benzoyl(4-(4-Cl-Ph))-βAla}-KTAN-X1)	64 (≈ 69.3 µM)	4.6 (≈ 4.98 µM)	1.9	8
CCCCc1ccc(-c2ccc(C(=O)N[C@@H](CCCNC(=N)N)C(=O)N[C@H](C(=O)N[C@@H](C)C(=O)N[C@@H](CCCCN)C(=O)N[C@@H](C)B3O[C@@H]4C[C@@H]5C[C@@H](C5(C)C)[C@]4(C)O3)[C@@H](C)O)cc2)cc1 [Compound 174] ({Biphenylcarbonyl(4'-Bu)}-RTAK-{boroAla((+)-pinanediol)})	0.5 (≈ 0.546 µM)	0.25 (≈ 0.273 µM)	130	59
CCCCc1ccc(-c2ccc(C(=O)N[C@@H](CN)C(=O)N[C@H](C(=O)N[C@@H](C)C(=O)N[C@@H](CCCCN)C(=O)N[C@@H](C)B(O)O)[C@@H](C)O)cc2)cc1 [Compound 162] ({Biphenylcarbonyl(4'-Bu)}-[Dap]TAK-boroAla)	0.5 (≈ 0.703 µM)	0.4 (≈ 0.562 µM)	200	12
CCCCc1ccc(-c2ccc(C(=O)NCCC(=O)N[C@@H](CCCCN)C(=O)N[C@@H](CCCCN)C(=O)N[C@@H](C)C(=O)N[C@@H](CC(N)=O)C(=O)N[C@@H](C)B3OC4C[C@@H]5C[C@@H](C5(C)C)[C@]4(C)O3)cc2)cc1 (some centres unmarked) [Compound 197] ({Biphenylcarbonyl(4'-Bu)-βAla}-KKAN-X1)	1 (≈ 1.03 µM)	0.3 (≈ 0.309 µM)	6.2	11
CCCCc1ccc(-c2ccc(C(=O)N[C@H](CO)C(=O)N[C@H](C)C(=O)NCC(=O)N(C)[C@@H](CCCCN)C(=O)N[C@@H](C)C(=O)N[C@@H](CC(N)=O)C(=O)N[C@@H](C)B3OC4C[C@@H]5C[C@@H](C5(C)C)[C@]4(C)O3)cc2)cc1 (some centres unmarked) [Compound 228] ({Biphenylcarbonyl(4'-Bu)}-[dS][dA]G[NMeK]AN-X1)	2.8 (≈ 2.79 µM)	5.7 (≈ 5.69 µM)	270	360
CCCCc1ccc(-c2ccc(C(=O)N[C@@H](CCCC[N+](C)(C)C)C(=O)N[C@H](C(=O)N[C@@H](C)C(=O)N[C@@H](CCCCN)C(=O)N[C@@H](C)B(O)O)[C@@H](C)O)cc2)cc1 [Compound 159] ({Biphenylcarbonyl(4'-Bu)}-[Lys(Me3)]TAK-boroAla)	16	1	86	240
C[C@H](NC(=O)[C@H](CCCCN)NC(=O)[C@H](C)NC(=O)[C@@H](NC(=O)[C@H](CN)NC(=O)c1ccc(-c2ccc(Cl)cc2)cc1)[C@@H](C)O)B(O)O [Compound 175] ({Benzoyl(4-(4-Cl-Ph))}-[Dap]TAK-boroAla)	2 (≈ 2.9 µM)	1.2 (≈ 1.74 µM)	110	5.5

From patent US9708368B2, “Linear peptide antibiotics” (priority 2012, dated 2017)
